Biological target: human recombinant 6His-Nterm SHP2 full-length (Thr2-Arg593) (Homo sapiens (Human), UniProt Q06124)
Experiment: SHP2 phosphatase assay (DiFMUP substrate, activating peptide)
Type: biochemical
Method: Inhibition of SHP2 phosphatase activity was evaluated using human recombinant 6His-Nterm (SEQ ID NO: 1) SHP2 full-length (Thr2-Arg593, R&D system), NsCs bi-phosphorylated activating peptide (NH2-LN(pY)AQLWHA(PEG8)LTI(pY)ATIRRF-Amide.acetate (SEQ ID NO: 2), Thermofischer Scientific) and DiFMUP as surrogate phosphatase substrate (Molecular Probes). All reactions were performed at room temperature in 384-well black polystyrene non-binding plate (Corning) with the assay buffer (50 mM HEPES-NaOH pH 7.2, 100 mM NaCl, 0.5 mM EDTA, 0.001% Brij35 including 0.02% BSA and 1 mM DTT added extemporaneously). SHP2 was pre-incubated at least 10 min with the activating peptide (0.2 nM and 100 nM, respectively). 10 μL of this mixture was added to the assay plate, that already contained 15 nL of the compound (1000-0.05 nM). After 30 min pre-incubation, the enzymatic reaction was initiated by the addition of 5 μL DiFMUP in assay buffer without BSA (20 μM). The reaction was stopped by the addition of 15 μL sodium pervanadate solution (100 μM) after 45 min incubation. The fluorescence signal was measured at excitation and emission wavelengths of 350 nm and 450 nm, respectively, using a Pherastar instrument (BMG-LabTech). Percentage of inhibition (I %) were calculated from the fluorescence signal at 450 nm of the positive and negative control using the following formula: […]
Positive control (Max): corresponds to the maximum fluorescence signal obtained in the presence of 15 nL DMSO replacing the inhibitor in the pre-incubation step.
Negative control (Min): corresponds to the minimum signal obtained in the presence of 1 μM of RMC-4550, the structure of which is shown below:
The IC50 were then calculated from a dose-response curve of 10 concentrations of tested compound using the 4-parameter logistic model:
The parameters A and (A+C) are the lower and upper limits, B is the slope of the curve at the inflexion point, M parameter is the logarithm of the abscissa at the inflexion point, and X is the concentration of compound.

[1] = full-length SHP2 0.2 nM pre-activated with bi-phosphorylated peptide 100 nM, DiFMUP 20 μM, 10-concentration dose-response

Sequence of human recombinant 6His-Nterm SHP2 full-length (Thr2-Arg593) (Q06124 2-593): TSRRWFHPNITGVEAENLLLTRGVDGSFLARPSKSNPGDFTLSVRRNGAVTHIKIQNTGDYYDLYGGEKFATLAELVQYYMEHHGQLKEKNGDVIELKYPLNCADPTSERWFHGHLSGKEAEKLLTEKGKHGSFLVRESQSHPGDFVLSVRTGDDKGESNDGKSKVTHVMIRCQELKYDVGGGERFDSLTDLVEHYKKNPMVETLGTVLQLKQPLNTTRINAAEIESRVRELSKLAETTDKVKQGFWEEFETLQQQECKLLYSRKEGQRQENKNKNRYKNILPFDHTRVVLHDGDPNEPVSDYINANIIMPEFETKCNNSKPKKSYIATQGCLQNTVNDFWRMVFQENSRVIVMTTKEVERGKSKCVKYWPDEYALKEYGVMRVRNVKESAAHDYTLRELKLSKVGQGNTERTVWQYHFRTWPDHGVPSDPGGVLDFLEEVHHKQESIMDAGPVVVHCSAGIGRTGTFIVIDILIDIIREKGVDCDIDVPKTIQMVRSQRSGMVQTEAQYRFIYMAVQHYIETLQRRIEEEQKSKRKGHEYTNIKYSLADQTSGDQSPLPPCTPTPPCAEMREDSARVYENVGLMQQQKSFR

| Compound | IC50 (Table 11 summary) | IC50 [1] |
| --- | --- | --- |
| Cc1nc(N2CCC3(CC2)Cc2ccncc2[C@H]3N)c2ccnn2c1-c1cnn(C)c1C [Compound 133, (7S)-1′-[7-(1,5-dimethylpyrazol-4-yl)-6-methyl-pyrazolo[1,5-a]pyrazin-4-yl]spiro[5,7-dihydrocyclopenta[c]pyridine-6,4′-piperidine]-7-amine] | 21 nM | 21 nM |
| COc1cc2c(cn1)CC1(CCN(c3nc(C)c(-c4cnn(C)c4C)n4nccc34)CC1)[C@@H]2N [Compound 132, (5S)-1′-[7-(1,5-dimethylpyrazol-4-yl)-6-methyl-pyrazolo[1,5-a]pyrazin-4-yl]-3-methoxy-spiro[5,7-dihydrocyclopenta[c]pyridine-6,4′-piperidine]-5-amine] | 34 nM | 34 nM |
| Cc1nc(N2CCC3(CC2)Cc2ncccc2[C@H]3N)c2c(CO)cnn2c1-c1ccccc1F [Compound 226, [4-[(5S)-5-aminospiro[5,7-dihydrocyclopenta[b]pyridine-6,4′-piperidine]-1′-yl]-7-(2-fluorophenyl)-6-methyl-pyrazolo[1,5-a]pyrazin-3-yl]methanol] | > 1000 nM | > 1000 nM |

From patent US20250282782A1, “PYRAZOLOPYRAZINE COMPOUNDS AS SHP2 INHIBITORS” (Genzyme Corporation, priority 2021, published 2025)
